Measurements published in paper PMC8162404, “Proteomimetic surface fragments distinguish targets by function” (Chemical Science, 2020).
Where two headings read alike, the source gives them in different places.

Assays:
Assay in all cases: Pull-down assay with immobilized protein and LSM libraries
[1] = biological target: T1, CaM (Bos taurus, UniProt P62157); format: binding, bovine; details: 1:2 stoichiometry assumed, read-out: Surface mapping KD (apparent)
T1 construct: made in house; host or cells: E. coli BL21 (DE3)
Method: Pull-down assays with immobilized test proteins and foldameric LSM libraries were carried out. Proteins were equilibrated with LSM probes, and equilibrium bound fractions (FB) were determined from the unbound fractions measured by HPLC-MS methods. Hits were corrected with background binding of the resin. The protocol allowed all binding events to equilibrate irrespective of affinity, specificity, and binding kinetics. This was essential to judge overall druggability and promiscuity. Importantly, the concentration of protein and the total concentration of foldameric LSMs were equimolar, which minimized competition between the probes. This experimental setup approximated independent binding of individual library members. Results were visualized as heat maps of dissociation constants (Fig. 3).
Pull-down assay and data analysis
Pull-down assay. LSM sublibraries were screened separately as previously described.(2) Experiments were performed in the following buffers: (i) 20 mM pH 7.4 HEPES, 150 mM NaCl, 5 mM CaCl2 for CaM; (ii) 50 mM pH 7.4 HEPES, 150 mM NaCl, 1 mM TCEP, 1 mM CaCl2 for S100 proteins; (iii) 20 mM pH 7.4 HEPES, 150 mM NaCl, 1 mM TCEP for Gal-1 and (iv) 20 mM pH 7.4 HEPES, 150 mM NaCl for RecQ-WH. Assays were performed in paper filter spin cups (Thermo Scientific) with sample volumes of 100 µl. Hexahistidine-tagged proteins were immobilized on previously washed Co-NTA resin (TALON, Takara Bio USA, Inc., […]
LSM sublibrary was added, in which each of the 64 library members were used at a concentration of 1 µM. Samples were incubated at room temperature for 30 min with shaking at 100 rpm. Then, samples were centrifuged at 1000 rpm for 2 min and washed with 100 µl pull-down buffer to remove unbound compounds.
The control experiments were performed using the same compounds and the resin but without the immobilized protein. In case of competitive assays, competitor peptides were added to LSM sublibrary samples in 200 µM final concentration. In the case of Gal-1, lactose (competitor) was used in a concentration of 10 mM. Experiments were performed at least twice. Mean […]
LC-MS methods and parameters. HPLC/ESI-MS analysis was used to characterize the samples from the pull-down assay. LC-MS analysis was performed with a Thermo Scientific Dionex UltiMate 3000 HPLC system interfaced to an LTQ ion trap mass spectrometer (Thermo Electron Corp., San Jose, CA, USA). Samples were injected onto an Aeris Widepore XB-C18 (250 x 4.6 mm) analytical HPLC column using gradient elution 5-80 % solution B during 25 minutes. For pull-down samples, eluent composition was 0.1% acetic acid in distilled water (Solution A) and 0.1% acetic acid in acetonitrile (solution B). Mass spectra were acquired in full scan mode from 200 to 2000 m/z range. For overlapping peaks, selective reaction monitoring (SRM) was […]
MS data analysis. Thermo Xcalibur 2.2 software was used for peak identification and integration. The majority of the foldameric fragments could be resolved independently via HPLC-MS/MS measurements based on molecular weight, MS fragmentation pattern and retention time. Peaks of some foldamers with β3-hIle or β3-hLeu in position R2 could not be resolved, these were integrated and averaged. In the processing method, each sample component was associated to a chromatographic peak based on previously identified mass (m/z) and retention time (ref (2) and Table S7-10). Using ICIS peak detection algorithm, the general detection and integration criteria were: smoothing points: 5, baseline window: 80, area noise factor: 5, peak noise factor: 10. Using these processing setups, all raw data files were reprocessed together and analyzed. Errors in peak identification during the automatic processing were corrected manually.
Calculation of the discussed parameters
1. Bound fractions (FB.) were calculated from the HPLC-MS intensity loss of the LSM probes compared to the control where no protein was immobilized to the resin: […]

[2] = biological target: T2, Gal-1 (Homo sapiens, UniProt P09382); format: binding; details: 1:1 binding assumed, read-out: Surface mapping KD (apparent)
T2 construct: made in house; host or cells: E. coli BL21(DE3)
T2 sequence (P09382 whole entry): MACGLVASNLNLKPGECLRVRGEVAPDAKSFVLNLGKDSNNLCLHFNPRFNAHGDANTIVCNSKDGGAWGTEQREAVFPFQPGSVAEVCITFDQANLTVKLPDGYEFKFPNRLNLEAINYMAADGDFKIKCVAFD
How it was run: (§1)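 Buffers were HEPES pH 7.4 with 150 mM NaCl, plus 1 mM TCEP and 1 mM CaCl2 (50 mM HEPES) for S100A4 and S100B, 1 mM TCEP for Gal-1, and no additive for RecQ-WH. Immobilized protein at 64 µM was equilibrated 30 min with the LSM sublibrary, and unbound probes were measured by LC-MS.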

[3] = biological target: T3, S100B (Homo sapiens, UniProt P04271); format: binding; details: 1:1 binding assumed, read-out: Surface mapping KD (apparent)
T3 construct: made in house; host or cells: Escherichia coli BL21(DE3)
T3 sequence (P04271 1-92): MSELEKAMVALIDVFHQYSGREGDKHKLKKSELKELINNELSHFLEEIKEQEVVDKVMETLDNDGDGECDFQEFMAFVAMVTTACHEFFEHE
How it was run: as §1

SMILES	Kd ([1]; H12 library) [µM]	Kd ([2]; H12 library) [µM]	Kd ([3]; H12 library) [µM]	Kd ([1]; H14 library) [µM]	Kd ([3]; H14 library) [µM]	Kd ([2]; H14 library) [µM]
C[C@@H](CC(=O)N[C@H]1CCC[C@@H]1C(=O)N[C@H]1CCC[C@@H]1C(=O)N[C@H](CC(=O)N[C@H]1CCC[C@@H]1C(=O)N[C@H]1CCC[C@@H]1C(N)=O)Cc1c[nH]c2ccccc12)NC(=O)[C@H]1CCC[C@@H]1NC(=O)[C@H]1CCC[C@@H]1N [H12 AW]	234	355	62	–	–	–
C[C@@H](CC(=O)N[C@H]1CCC[C@@H]1C(=O)N[C@H]1CCC[C@@H]1C(N)=O)NC(=O)[C@H]1CCC[C@@H]1NC(=O)[C@H]1CCC[C@@H]1NC(=O)C[C@H](Cc1ccccc1)NC(=O)[C@H]1CCC[C@@H]1NC(=O)[C@H]1CCC[C@@H]1N [H12 FA]	496	341	116	–	–	–
CC[C@H](C)[C@@H](CC(=O)N[C@H]1CCC[C@@H]1C(=O)N[C@H]1CCC[C@@H]1C(=O)N[C@@H](CCCNC(=N)N)CC(=O)N[C@H]1CCC[C@@H]1C(=O)N[C@H]1CCC[C@@H]1C(N)=O)NC(=O)[C@H]1CCC[C@@H]1NC(=O)[C@H]1CCC[C@@H]1N [H12 IR]	236	120	39	–	–	–
CC[C@H](C)[C@@H](CC(=O)N[C@H]1CCC[C@@H]1C(=O)N[C@H]1CCC[C@@H]1C(N)=O)NC(=O)[C@H]1CCC[C@@H]1NC(=O)[C@H]1CCC[C@@H]1NC(=O)C[C@H](CCCCN)NC(=O)[C@H]1CCC[C@@H]1NC(=O)[C@H]1CCC[C@@H]1N [H12 KI]	314	250	71	–	–	–
N=C(N)NCCC[C@@H](CC(=O)N[C@H]1CCC[C@@H]1C(=O)N[C@H]1CCC[C@@H]1C(N)=O)NC(=O)[C@H]1CCC[C@@H]1NC(=O)[C@H]1CCC[C@@H]1NC(=O)C[C@H](CCCCN)NC(=O)[C@H]1CCC[C@@H]1NC(=O)[C@H]1CCC[C@@H]1N [H12 KR]	330	231	146	–	–	–
CC(C)C[C@@H](CC(=O)N[C@H]1CCC[C@@H]1C(=O)N[C@H]1CCC[C@@H]1C(=O)N[C@H](CC(=O)N[C@H]1CCC[C@@H]1C(=O)N[C@H]1CCC[C@@H]1C(N)=O)C(C)C)NC(=O)[C@H]1CCC[C@@H]1NC(=O)[C@H]1CCC[C@@H]1N [H12 LV]	270	468	116	–	–	–
NC(=O)C[C@@H](CC(=O)N[C@H]1CCC[C@@H]1C(=O)N[C@H]1CCC[C@@H]1C(=O)N[C@H](CC(=O)N[C@H]1CCC[C@@H]1C(=O)N[C@H]1CCC[C@@H]1C(N)=O)Cc1ccccc1)NC(=O)[C@H]1CCC[C@@H]1NC(=O)[C@H]1CCC[C@@H]1N [H12 NF]	162	–	368	–	–	–
NC(=O)C[C@@H](CC(=O)N[C@H]1CCC[C@@H]1C(=O)N[C@H]1CCC[C@@H]1C(=O)N[C@H](CC(=O)N[C@H]1CCC[C@@H]1C(=O)N[C@H]1CCC[C@@H]1C(N)=O)Cc1c[nH]c2ccccc12)NC(=O)[C@H]1CCC[C@@H]1NC(=O)[C@H]1CCC[C@@H]1N [H12 NW]	63	–	155	–	–	–
NC(=O)CC[C@@H](CC(=O)N[C@H]1CCC[C@@H]1C(=O)N[C@H]1CCC[C@@H]1C(=O)N[C@H](CC(=O)N[C@H]1CCC[C@@H]1C(=O)N[C@H]1CCC[C@@H]1C(N)=O)Cc1ccccc1)NC(=O)[C@H]1CCC[C@@H]1NC(=O)[C@H]1CCC[C@@H]1N [H12 QF]	181	–	461	–	–	–
NC(=O)[C@H]1CCC[C@@H]1NC(=O)[C@H]1CCC[C@@H]1NC(=O)C[C@H](Cc1ccccc1)NC(=O)[C@H]1CCC[C@@H]1NC(=O)[C@H]1CCC[C@@H]1NC(=O)C[C@H](CO)NC(=O)[C@H]1CCC[C@@H]1NC(=O)[C@H]1CCC[C@@H]1N [H12 SF]	153	–	189	–	–	–
CC[C@H](C)[C@@H](CC(=O)N[C@H]1CCC[C@@H]1C(=O)N[C@H]1CCC[C@@H]1C(N)=O)NC(=O)[C@H]1CCC[C@@H]1NC(=O)[C@H]1CCC[C@@H]1NC(=O)C[C@H](CO)NC(=O)[C@H]1CCC[C@@H]1NC(=O)[C@H]1CCC[C@@H]1N [H12 SI]	252	–	419	–	–	–
CC(C)C[C@@H](CC(=O)N[C@H]1CCC[C@@H]1C(=O)N[C@H]1CCC[C@@H]1C(N)=O)NC(=O)[C@H]1CCC[C@@H]1NC(=O)[C@H]1CCC[C@@H]1NC(=O)C[C@H](CO)NC(=O)[C@H]1CCC[C@@H]1NC(=O)[C@H]1CCC[C@@H]1N [H12 SL]	252	–	419	–	–	–
C[C@@H](O)[C@@H](CC(=O)N[C@H]1CCC[C@@H]1C(=O)N[C@H]1CCC[C@@H]1C(=O)N[C@H](CC(=O)N[C@H]1CCC[C@@H]1C(=O)N[C@H]1CCC[C@@H]1C(N)=O)Cc1ccccc1)NC(=O)[C@H]1CCC[C@@H]1NC(=O)[C@H]1CCC[C@@H]1N [H12 TF]	90	–	185	–	–	–
C[C@@H](O)[C@@H](CC(=O)N[C@H]1CCC[C@@H]1C(=O)N[C@H]1CCC[C@@H]1C(=O)N[C@@H](CCCNC(=N)N)CC(=O)N[C@H]1CCC[C@@H]1C(=O)N[C@H]1CCC[C@@H]1C(N)=O)NC(=O)[C@H]1CCC[C@@H]1NC(=O)[C@H]1CCC[C@@H]1N [H12 TR]	282	–	286	–	–	–
C[C@@H](O)[C@@H](CC(=O)N[C@H]1CCC[C@@H]1C(=O)N[C@H]1CCC[C@@H]1C(=O)N[C@H](CC(=O)N[C@H]1CCC[C@@H]1C(=O)N[C@H]1CCC[C@@H]1C(N)=O)Cc1c[nH]c2ccccc12)NC(=O)[C@H]1CCC[C@@H]1NC(=O)[C@H]1CCC[C@@H]1N [H12 TW]	25	–	113	–	–	–
C[C@@H](O)[C@@H](CC(=O)N[C@H]1CCC[C@@H]1C(=O)N[C@H]1CCC[C@@H]1C(=O)N[C@H](CC(=O)N[C@H]1CCC[C@@H]1C(=O)N[C@H]1CCC[C@@H]1C(N)=O)Cc1ccc(O)cc1)NC(=O)[C@H]1CCC[C@@H]1NC(=O)[C@H]1CCC[C@@H]1N [H12 TY]	132	–	–	–	–	–
C[C@@H](CC(=O)N[C@H]1CCCC[C@@H]1C(=O)N[C@H]1CCCC[C@@H]1C(=O)N[C@@H](CCCCN)CC(=O)N[C@H]1CCCC[C@@H]1C(N)=O)NC(=O)[C@H]1CCCC[C@@H]1N [H14 AK]	–	–	–	181	180	–
NCCCC[C@@H](CC(=O)N[C@H]1CCCC[C@@H]1C(=O)N[C@H]1CCCC[C@@H]1C(=O)N[C@@H](CCC(N)=O)CC(=O)N[C@H]1CCCC[C@@H]1C(N)=O)NC(=O)[C@H]1CCCC[C@@H]1N [H14 KQ]	–	–	–	307	173	–
NCCCC[C@@H](CC(=O)N[C@H]1CCCC[C@@H]1C(=O)N[C@H]1CCCC[C@@H]1C(=O)N[C@@H](CO)CC(=O)N[C@H]1CCCC[C@@H]1C(N)=O)NC(=O)[C@H]1CCCC[C@@H]1N [H14 KS]	–	–	–	262	217	–
C[C@@H](O)[C@@H](CC(=O)N[C@H]1CCCC[C@@H]1C(N)=O)NC(=O)[C@H]1CCCC[C@@H]1NC(=O)[C@H]1CCCC[C@@H]1NC(=O)C[C@H](CCCNC(=N)N)NC(=O)[C@H]1CCCC[C@@H]1N [H14 RT]	–	–	–	124	324	–
NC(=O)[C@H]1CCCC[C@@H]1NC(=O)C[C@H](CC(=O)O)NC(=O)[C@H]1CCCC[C@@H]1NC(=O)[C@H]1CCCC[C@@H]1NC(=O)C[C@H](CO)NC(=O)[C@H]1CCCC[C@@H]1N [H14 SD]	–	–	–	225	–	432
